According to patent US20090081786A1, “Peptide sequences for modulation of protein kinase C” (priority 2006, published 2009):

How the values were obtained:
annexin V/δ-PKC complex = assay: co-immunoprecipitation of annexin V/δ-PKC complex from CHO cells; assay type: cell-based, hamster
Protocol: The complexes were immunoprecipitated with anti-δ-PKC antibodies and probed for the presence of annexin V at the combined molecular weight of about 110 kD.
CHO-K1 cells (available through the ATCC) were grown in F-12 (HAM) nutrient mixture supplemented with GLUTAMAX, 10% fetal bovine serum, and antibiotics (100 units/ml penicillin and […] streptomycin sulfate, all from Invitrogen Corp.). The cells were cultured at 37° C. under 5% CO2. At 48 hours prior to the study, the cells were serum starved. They were stimulated with 10 nM phorbol 12-myristate 13-acetate (PMA) (available through LC Laboratories) or with 5 mM H2O2 (available through Sigma Chemical Corp.) for the indicated duration ranging from about 30 seconds to about 5 minutes, a technique well-known to one of skill in the art. The cells were washed with cold PBS, and homogenized on ice with trituration in homogenization buffer (20 mM Tris pH 7.4, 2 mM EDTA, 10 mM EGTA, 0.25M sucrose, 12 mM β-mercaptoethanol, protease inhibitor cocktail (available through Sigma Chemical Corp)), 0.1% TRITON X-100, and 1% formaldehyde.
It was observed that the 0.1% TRITON extracts all of the translocatable PKC from the cell. After 30 min at 4° C., the lysates were quenched with 0.14M glycine for 20 min at 4° C., and the samples were spun at 14K rpm at 4° C. The supernatant was incubated with 1 μg anti-δ-PKC antibody (available through Santa Cruz Biotechnology) for 1 hour, followed by exposure to protein-G beads (available through Invitrogen Corp.) for 3 hours at 4° C. The beads were then washed with wash buffer (20 mM Tris pH 7.5, 2 mM EDTA, 100 mM NaCl, 12 mM β-mercaptoethanol, 0.1% TRITON), and separated on 7.5% SDS-PAGE, transferred to nitrocellulose, and probed with anti-annexin V (available through Santa Cruz Biotechnology), followed by visualization using an enhanced chemiluminescence (ECL) method.

δ-PKC [1] = assay: real-time confocal imaging of YFP-δPKC translocation in CHO cells; assay type: cell-based, hamster; conditions: 10 μM pretreatment for 30 minutes, 100 nM PMA, vs untreated
Protocol: CHO cells were grown on chambered #1 Borosilicate coverglass (Lab-Tek), transfected at 50% confluency using Fugene 6 (Roche), according to the manufacturer's instructions, with CFP-annexin V and YFP-δPKC cloned into the pECFP-C1 and pEYFP-C1 vectors, respectively (Clontech). The cells were serum starved for 24 hours. Real-time confocal imaging was conducted on a spinning disk Nipkow confocal microscope, and the cells were viewed using an inverted Olympus IX70 microscope with a 40× oil immersion Olympus objective (1.35 NA). Images were acquired using a CCD camera (Hamamatsu) with 2×2 pixel binning. […]
Fluorescence intensity was measured using METAMORPH data analysis software (Universal Imaging). To monitor the translocation of the PKC and the increases in FRET signal, a small region of interest was selected from each cell and fluorescence intensity values were graphed against time and normalized to the initial fluorescence. FRET was calculated using a formula that corrects for bleed-through and donor concentration: FRET=(I(442-530)-αI(442-480)-βI(515-530))/I(442-480). The α and β coefficients were calculated from singly transfected cells, where α=I(442-530)/I(442-480)=47.6% of CFP bleed-through into the YFP channel, and β=I(442-530)/I(515-530)=14.4% of YFP excitation from the CFP channel.

isolated rat hearts = assay: ex vivo model of ischemia and reperfusion in isolated rat hearts; conditions: 1 μM
Protocol: FIG. 6C compares the infarct sizes that were measured on both sides of the tissue slices and averaged. […] In FIG. 6D, creatine phosphokinase (CPK) release was measured in the heart perfusate during the reperfusion.

ε-PKC = assay: PMA-induced translocation of ε-PKC in CHO cells; assay type: cell-based, hamster; conditions: peptide pretreatment
Protocol: (§1) The CHO cells of Example 1 were fractionated, stimulated, and washed with cold PBS, scraped in homogenization buffer, and spun at 100,000 g for 30 min at 4° C., resulting in the soluble fraction. The pellet was then resuspended in a homogenization buffer with 1% TRITON X-100, and spun under the same conditions. Where applicable, the cells were pre-incubated with 1 μM peptide for 15 minutes prior to stimulation. The samples were then analyzed using a Western blot, and the loading was corrected for protein concentration using an internal control such as actin.

δ-PKC/annexin V = δ-PKC/annexin V binding ELISA assay
δ-PKC [2] = assay: PMA-induced translocation of δ-PKC from soluble to particulate fraction in CHO cells; assay type: cell-based, hamster; conditions: 1 μM peptide pretreatment, 5 minutes of PMA stimulation
Protocol: as §1

annexin V = biological target: T1, annexin V (Homo sapiens, UniProt P08758); assay: overlay binding assay on immobilized annexin V; conditions: immobilized annexin V on nitrocellulose, overlay 37° C. 30 min, Western blotting
T1 sequence (P08758 1-320): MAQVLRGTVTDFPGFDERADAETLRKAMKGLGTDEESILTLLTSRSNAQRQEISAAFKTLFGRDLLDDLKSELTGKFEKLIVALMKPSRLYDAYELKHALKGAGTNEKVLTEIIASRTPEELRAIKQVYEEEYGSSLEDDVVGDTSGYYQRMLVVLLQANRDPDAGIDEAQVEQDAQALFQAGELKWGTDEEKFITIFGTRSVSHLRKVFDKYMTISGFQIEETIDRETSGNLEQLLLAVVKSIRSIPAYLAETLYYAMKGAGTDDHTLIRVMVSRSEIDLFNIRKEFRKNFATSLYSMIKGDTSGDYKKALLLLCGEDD
Protocol: A binding assay was performed in vitro, using an immobilized annexin V with the δ-PKC, δ-V1 (SEQ ID NO:18) (the C2 domain of δ-PKC), δ-V5 (SEQ ID NO:19), and ε-V1 (SEQ ID NO:20) peptides. These domains are recognized in the art as participating in protein-protein interactions.
10 μg of the annexin V was separated on 12% SDS-PAGE gel and transferred to nitrocellulose, and then cut into strips. The strips were incubated with blocking buffer (50 mM Tris pH 7.5, 200 mM NaCl, 3% bovine serum albumin, 0.1% PEG20). The strips were then incubated in overlay buffer (50 mM Tris pH 7.5, 200 mM NaCl, 1% PEG20, 12 mM β-mercaptoethanol) in the presence where appropriate of 30 μg crude bacterial cell lysate containing fusion proteins of myelin basic protein (MBP)-delta V1 PKC (MBP-δV1), glutathione-S-transferase-delta V5 PKC (GST-δV5), and full length sequences of δ-PKC or rat purified ε-PKC (SEQ ID NO:21) at 37° C. for 30 min. The strips where then washed with wash buffer (50 mM Tris pH 7.5, 200 mM NaCl, 0.1% PEG20, 12 mM β-mercaptoethanol), and then incubated with fixative (0.2% formaldehyde in PBS) and neutralizing solution (0.2M glycine in PBS) at room temperature 20 min each. After washing with buffer, the strips were probed with antibodies according to the overlay protein, and resulting bands were visualized using ECL Western blotting.

Compound: OO [H2O2]
- association between annexin V and δ-PKC (annexin V/δ-PKC complex; H2O2 5 mM, 0.5-1 minute treatment): transient association

Compound: CCCCCCCCCCCCCC(=O)O[C@@H]1[C@@H](C)[C@@]2(O)[C@@H](C=C(CO)C[C@]3(O)C(=O)C(C)=C[C@@H]23)[C@@H]2C(C)(C)[C@]12OC(C)=O [PMA, phorbol 12-myristate 13-acetate]
- increase in the amount of annexin V/δ-PKC complex (annexin V/δ-PKC complex; 10 nm PMA, within the first 0.5 minutes of treatment): ~4 fold

Compound: COC(=O)Nc1nc2ccc(C(=O)c3cccs3)cc2[nH]1 [nocodazole]
- translocation profile of overexpressed δ-PKC (δ-PKC [1]): did not alter the translocation profile

Compound: EpAnxV: pAnxV in which the arginine in annexin V was replaced with the glutamate found in δ-PKC (SEQ ID NO:33) (YGRKKRRQRRRCCLQANEDPD; listed as Homo sapiens)
- reduction of infarct size (isolated rat hearts; 10 minutes prior to 30-minute no-flow ischemia and 10 minutes at onset of 60 minutes reperfusion, TTC staining): had no effect
- reduction in necrosis (creatine phosphokinase release in heart perfusate) (isolated rat hearts; CPK measured during reperfusion): did not show any statistical difference from the control heart
- ischemia-induced δ-PKC-mediated damage to the heart (isolated rat hearts; isolated rat hearts): did not inhibit
- PMA-induced translocation of ε-PKC (ε-PKC): neither peptide affected
- δ-PKC/annexin V binding in ELISA (δ-PKC/annexin V): no significant effect

Compound: LQANRDPD [pAnxV, annexin V-derived peptide, annexin V residues 157-164, conjugated to TAT47-57 carrier peptide]
- PMA-induced translocation of δ-PKC to the particulate fraction (δ-PKC [2]): blocked
- PMA-induced translocation of ε-PKC (ε-PKC): neither peptide affected
- δ-PKC/annexin V complex formation (immunoprecipitation) (annexin V/δ-PKC complex; peptide pretreatment): blocked
- δ-PKC/annexin V binding in ELISA (δ-PKC/annexin V): inhibited

Compound: δ-V5: V5 domain of δ-PKC (SEQ ID NO:19), used as glutathione-S-transferase fusion (PKVKSPSDYSNFDPEFLNEKPQLSFSDKNLIDSMDQEAFHGFSFVNPKFEQFLDI; left off: a dimerising Fc or GST)
- binding to annexin V (annexin V): bind to the annexin V
